Test results published in article PMC10412597, “Small molecule branched-chain ketoacid dehydrogenase kinase (BDK) inhibitors with opposing effects on BDK protein levels” (Nature Communications, 2023).

Tests used:
Design in all cases: Invitrogen kinase panel, per cent inhibition of kinase activity
MAPK1 = MAPK1 (Homo sapiens, UniProt P28482); details: 10 µM, inhibitor
Description: (§1) To discover a potent and selective BDK inhibitor, a subset of the Pfizer compound collection was screened. […] Off target activity was assessed in both CEREP and kinase panels (Supplementary Tables 2, 3).

MAPKAPK5 = MAPKAPK5 (Homo sapiens, UniProt Q8IW41); details: 10 µM, inhibitor
In short: (§2)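 Activity was measured in a kinase selectivity panel. The data come from off-target testing of the same BDK inhibitors.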

SRC = SRC (Homo sapiens, UniProt P12931); details: 10 µM, inhibitor
Description: as §1

AURKB = AURKB (Homo sapiens, UniProt Q96GD4); details: 10 µM, inhibitor
In short: as §2

EPHA2 = EPHA2 (Homo sapiens, UniProt P29317); details: 10 µM, inhibitor
Description: as §1

[1] = molecular target: T1, Epidermal Growth Factor Receptor (Homo sapiens, UniProt P00533); details: 10 µM, inhibitor
T1 construct: gene EGFR
Description: as §1

MAPK13 = MAPK13 (Homo sapiens, UniProt O15264); details: 10 µM, inhibitor
In short: as §2

PRKACA = PRKACA (Homo sapiens, UniProt P17612); details: 10 µM, inhibitor
Description: as §1

[2] = molecular target: T2, Eukaryotic elongation factor-2 kinase (Homo sapiens, UniProt O00418); details: 10 µM, inhibitor
T2 construct: gene EEF2K
In short: as §2

MAPK14 = MAPK14 (Homo sapiens, UniProt Q16539); details: 10 µM, inhibitor
Description: as §1

Rsk1 = molecular target: T3, Rsk1 (Homo sapiens, UniProt Q15418); details: 10 µM, inhibitor
T3 construct: gene RPS6KA1
In short: as §2

STK3 = molecular target: T4, STK3 (Homo sapiens, UniProt Q13188); details: 10 µM, inhibitor
T4 sequence (Q13188 1-491): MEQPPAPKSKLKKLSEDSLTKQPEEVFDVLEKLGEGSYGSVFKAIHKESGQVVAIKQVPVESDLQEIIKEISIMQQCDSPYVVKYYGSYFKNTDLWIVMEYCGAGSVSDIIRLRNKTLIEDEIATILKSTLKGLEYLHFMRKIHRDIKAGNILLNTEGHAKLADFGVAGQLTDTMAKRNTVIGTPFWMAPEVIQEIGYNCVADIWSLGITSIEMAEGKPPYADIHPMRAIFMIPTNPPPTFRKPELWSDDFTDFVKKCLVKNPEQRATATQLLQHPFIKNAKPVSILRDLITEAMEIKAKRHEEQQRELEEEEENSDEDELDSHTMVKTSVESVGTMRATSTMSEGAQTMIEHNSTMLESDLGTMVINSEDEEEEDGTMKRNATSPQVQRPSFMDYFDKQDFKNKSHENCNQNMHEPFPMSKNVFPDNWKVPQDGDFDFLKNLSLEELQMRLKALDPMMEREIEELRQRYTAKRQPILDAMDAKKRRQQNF
Description: as §1

SPHK2 = SPHK2 (Homo sapiens, UniProt Q9NRA0); details: inhibitor
Description: as §1

LCK = LCK (Homo sapiens, UniProt P06239); details: 10 µM, inhibitor
Description: as §1

GSK3B = GSK3B (Homo sapiens, UniProt P49841); details: 10 µM, inhibitor
Description: as §1

CAMK2A = CAMK2A (Homo sapiens, UniProt Q9UQM7); details: 10 µM, inhibitor
Description: as §1

MET = MET (Homo sapiens, UniProt P08581); details: 10 µM, inhibitor
Description: as §1

NEK6 = NEK6 (Homo sapiens, UniProt Q9HC98); details: 10 µM, inhibitor
In short: as §2

MSK1 = molecular target: T5, MSK1 (Homo sapiens, UniProt O75582); details: 10 µM, inhibitor
T5 construct: gene RPS6KA5
In short: as §2

MAPK14, sequence (Q16539 whole entry): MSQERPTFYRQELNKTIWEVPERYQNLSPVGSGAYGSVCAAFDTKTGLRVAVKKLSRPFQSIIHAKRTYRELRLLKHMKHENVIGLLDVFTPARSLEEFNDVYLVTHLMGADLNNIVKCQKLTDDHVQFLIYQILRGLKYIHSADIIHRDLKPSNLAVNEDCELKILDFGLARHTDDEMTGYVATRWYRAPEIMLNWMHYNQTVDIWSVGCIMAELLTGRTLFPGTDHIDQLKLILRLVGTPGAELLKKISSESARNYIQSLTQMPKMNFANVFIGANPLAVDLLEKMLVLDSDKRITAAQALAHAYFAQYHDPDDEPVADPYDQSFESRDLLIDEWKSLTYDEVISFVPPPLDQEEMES
T1 sequence (P00533 whole entry): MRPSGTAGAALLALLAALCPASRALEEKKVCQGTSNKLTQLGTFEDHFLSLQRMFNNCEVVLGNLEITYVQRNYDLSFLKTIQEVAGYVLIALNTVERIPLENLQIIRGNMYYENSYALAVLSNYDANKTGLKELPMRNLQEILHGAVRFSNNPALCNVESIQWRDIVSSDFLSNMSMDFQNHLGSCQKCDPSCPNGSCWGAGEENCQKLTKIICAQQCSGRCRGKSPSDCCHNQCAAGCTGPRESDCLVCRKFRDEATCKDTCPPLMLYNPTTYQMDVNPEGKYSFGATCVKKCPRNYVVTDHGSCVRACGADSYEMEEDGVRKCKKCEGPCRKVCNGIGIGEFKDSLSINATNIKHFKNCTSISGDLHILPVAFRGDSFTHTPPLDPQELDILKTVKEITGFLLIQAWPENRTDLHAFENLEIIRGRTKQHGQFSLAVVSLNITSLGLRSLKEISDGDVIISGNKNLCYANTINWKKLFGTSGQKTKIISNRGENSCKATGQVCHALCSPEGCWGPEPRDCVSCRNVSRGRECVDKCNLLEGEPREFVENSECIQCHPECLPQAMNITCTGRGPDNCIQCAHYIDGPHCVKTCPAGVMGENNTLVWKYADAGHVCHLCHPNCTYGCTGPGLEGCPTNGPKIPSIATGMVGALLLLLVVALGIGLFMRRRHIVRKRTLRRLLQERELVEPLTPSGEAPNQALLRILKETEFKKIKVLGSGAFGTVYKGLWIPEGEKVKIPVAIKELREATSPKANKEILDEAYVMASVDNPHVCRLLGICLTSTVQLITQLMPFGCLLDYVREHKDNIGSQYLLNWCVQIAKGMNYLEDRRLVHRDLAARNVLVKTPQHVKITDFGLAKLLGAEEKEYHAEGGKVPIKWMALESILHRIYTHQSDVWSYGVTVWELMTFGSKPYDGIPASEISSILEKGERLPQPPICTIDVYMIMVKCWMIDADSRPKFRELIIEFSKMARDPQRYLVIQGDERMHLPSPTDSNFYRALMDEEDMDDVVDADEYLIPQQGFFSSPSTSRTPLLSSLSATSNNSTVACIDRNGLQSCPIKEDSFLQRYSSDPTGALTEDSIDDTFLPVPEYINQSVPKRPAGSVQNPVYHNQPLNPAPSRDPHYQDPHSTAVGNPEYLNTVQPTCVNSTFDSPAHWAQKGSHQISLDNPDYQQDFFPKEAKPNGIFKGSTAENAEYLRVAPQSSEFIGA
GSK3B, sequence (P49841 whole entry): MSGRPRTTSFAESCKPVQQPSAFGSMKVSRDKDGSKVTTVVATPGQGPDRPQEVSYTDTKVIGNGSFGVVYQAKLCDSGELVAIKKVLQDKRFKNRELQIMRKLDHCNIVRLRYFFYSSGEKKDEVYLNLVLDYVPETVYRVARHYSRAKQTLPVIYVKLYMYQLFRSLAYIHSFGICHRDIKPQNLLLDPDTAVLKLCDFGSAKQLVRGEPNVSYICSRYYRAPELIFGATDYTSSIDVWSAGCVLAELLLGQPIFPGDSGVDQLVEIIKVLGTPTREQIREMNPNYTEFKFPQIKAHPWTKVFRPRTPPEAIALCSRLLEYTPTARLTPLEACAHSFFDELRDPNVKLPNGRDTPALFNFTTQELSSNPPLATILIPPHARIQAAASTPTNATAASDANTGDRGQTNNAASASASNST
CAMK2A, sequence (Q9UQM7 whole entry): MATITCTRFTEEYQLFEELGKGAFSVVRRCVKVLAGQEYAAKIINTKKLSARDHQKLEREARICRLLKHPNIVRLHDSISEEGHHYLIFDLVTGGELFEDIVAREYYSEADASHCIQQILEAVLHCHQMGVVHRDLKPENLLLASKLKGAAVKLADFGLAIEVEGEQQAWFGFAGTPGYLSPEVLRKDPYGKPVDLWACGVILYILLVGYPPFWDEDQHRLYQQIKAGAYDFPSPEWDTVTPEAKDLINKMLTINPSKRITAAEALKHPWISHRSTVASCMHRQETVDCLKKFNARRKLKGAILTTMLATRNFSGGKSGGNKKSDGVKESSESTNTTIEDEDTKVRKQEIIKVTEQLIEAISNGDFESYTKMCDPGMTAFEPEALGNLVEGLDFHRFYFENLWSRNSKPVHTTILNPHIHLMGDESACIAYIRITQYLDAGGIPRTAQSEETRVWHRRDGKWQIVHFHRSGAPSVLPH
SRC, sequence (P12931 whole entry): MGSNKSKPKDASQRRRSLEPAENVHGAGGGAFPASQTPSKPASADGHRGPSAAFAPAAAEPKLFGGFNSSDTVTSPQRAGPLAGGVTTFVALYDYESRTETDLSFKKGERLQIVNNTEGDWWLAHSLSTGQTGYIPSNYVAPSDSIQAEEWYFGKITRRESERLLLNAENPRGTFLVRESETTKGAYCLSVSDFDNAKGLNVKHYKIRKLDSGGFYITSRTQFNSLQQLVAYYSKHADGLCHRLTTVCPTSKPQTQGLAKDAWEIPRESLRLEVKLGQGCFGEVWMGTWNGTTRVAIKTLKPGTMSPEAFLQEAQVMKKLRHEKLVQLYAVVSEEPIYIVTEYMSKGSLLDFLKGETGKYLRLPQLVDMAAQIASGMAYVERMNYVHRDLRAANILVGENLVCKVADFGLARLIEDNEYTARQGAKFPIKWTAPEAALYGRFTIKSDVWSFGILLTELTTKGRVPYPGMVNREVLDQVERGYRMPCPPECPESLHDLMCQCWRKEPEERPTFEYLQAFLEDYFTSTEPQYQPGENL
EPHA2, sequence (P29317 whole entry): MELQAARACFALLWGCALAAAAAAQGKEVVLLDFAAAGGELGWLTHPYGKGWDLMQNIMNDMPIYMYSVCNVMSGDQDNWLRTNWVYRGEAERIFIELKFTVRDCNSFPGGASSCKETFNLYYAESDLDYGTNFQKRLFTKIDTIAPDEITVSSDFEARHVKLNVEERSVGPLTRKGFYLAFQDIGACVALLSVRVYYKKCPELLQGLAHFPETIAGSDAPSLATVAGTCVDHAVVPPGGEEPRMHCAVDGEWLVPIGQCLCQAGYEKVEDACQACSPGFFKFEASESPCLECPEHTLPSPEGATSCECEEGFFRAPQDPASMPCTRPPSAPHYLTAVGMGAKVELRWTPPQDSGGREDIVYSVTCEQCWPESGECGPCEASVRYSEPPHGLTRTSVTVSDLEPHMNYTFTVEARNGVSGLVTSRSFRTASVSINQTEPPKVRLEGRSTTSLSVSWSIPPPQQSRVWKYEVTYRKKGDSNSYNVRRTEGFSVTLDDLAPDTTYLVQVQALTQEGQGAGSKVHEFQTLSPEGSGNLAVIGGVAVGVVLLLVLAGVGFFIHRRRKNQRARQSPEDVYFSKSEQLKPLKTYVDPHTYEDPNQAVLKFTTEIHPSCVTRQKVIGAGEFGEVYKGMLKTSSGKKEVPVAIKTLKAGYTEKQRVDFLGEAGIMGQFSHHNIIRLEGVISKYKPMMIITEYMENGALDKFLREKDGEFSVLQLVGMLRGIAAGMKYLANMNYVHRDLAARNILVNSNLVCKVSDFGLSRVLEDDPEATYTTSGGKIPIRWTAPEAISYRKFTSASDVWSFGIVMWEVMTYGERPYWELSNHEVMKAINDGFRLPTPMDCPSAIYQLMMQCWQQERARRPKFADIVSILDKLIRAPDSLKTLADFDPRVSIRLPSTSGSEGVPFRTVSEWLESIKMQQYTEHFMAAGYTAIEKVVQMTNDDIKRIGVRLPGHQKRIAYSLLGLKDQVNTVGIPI
MAPK1, sequence (P28482 whole entry): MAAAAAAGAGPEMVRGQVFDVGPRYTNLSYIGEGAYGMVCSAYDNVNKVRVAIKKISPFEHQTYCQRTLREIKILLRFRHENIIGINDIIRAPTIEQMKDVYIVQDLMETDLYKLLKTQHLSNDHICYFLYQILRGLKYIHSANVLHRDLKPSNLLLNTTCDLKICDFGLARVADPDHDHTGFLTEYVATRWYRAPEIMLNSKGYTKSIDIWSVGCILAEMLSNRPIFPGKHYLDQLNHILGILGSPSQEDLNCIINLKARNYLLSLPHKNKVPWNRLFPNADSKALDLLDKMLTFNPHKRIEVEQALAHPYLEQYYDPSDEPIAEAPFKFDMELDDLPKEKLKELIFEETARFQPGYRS
LCK, sequence (P06239 whole entry): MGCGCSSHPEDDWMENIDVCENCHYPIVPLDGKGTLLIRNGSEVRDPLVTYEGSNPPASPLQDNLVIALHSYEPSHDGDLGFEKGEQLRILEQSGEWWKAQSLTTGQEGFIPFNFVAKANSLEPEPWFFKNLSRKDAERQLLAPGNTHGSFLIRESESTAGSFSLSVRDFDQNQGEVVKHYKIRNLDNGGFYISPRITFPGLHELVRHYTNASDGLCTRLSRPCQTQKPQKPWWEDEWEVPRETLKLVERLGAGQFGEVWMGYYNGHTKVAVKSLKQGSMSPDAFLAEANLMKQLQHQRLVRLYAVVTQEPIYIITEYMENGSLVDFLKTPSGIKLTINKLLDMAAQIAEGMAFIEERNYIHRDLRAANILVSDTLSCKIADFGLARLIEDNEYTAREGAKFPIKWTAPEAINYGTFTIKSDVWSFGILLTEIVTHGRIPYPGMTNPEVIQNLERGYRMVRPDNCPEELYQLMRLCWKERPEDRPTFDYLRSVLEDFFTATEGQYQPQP

O=C(O)c1sc2cc(F)sc2c1Cl [PF-07208254, 3-chloro-5-fluorothieno[3,2-b]thiophene-2-carboxylic acid]
ATP = 1 mM % Inhibition PF-07208254 (MAPK1): 2.8%
ATP = Km % Inhibition PF-07208254 (MAPK1): 9.4%
ATP = Km % Inhibition PF-07208254 (MAPKAPK5): 6.6%
ATP = 1 mM % Inhibition PF-07208254 (SRC): -4.8%
ATP = Km % Inhibition PF-07208254 (SRC): 5.6%
ATP = Km % Inhibition PF-07208254 (AURKB): 3.0%
ATP = 1 mM % Inhibition PF-07208254 (EPHA2): -5.6%
ATP = Km % Inhibition PF-07208254 (EPHA2): 0.5%
ATP = 1 mM % Inhibition PF-07208254 [1]: -7.2%
ATP = Km % Inhibition PF-07208254 [1]: -0.9%
ATP = Km % Inhibition PF-07208254 (MAPK13): 3.6%
ATP = 1 mM % Inhibition PF-07208254 (PRKACA): -2.4%
ATP = Km % Inhibition PF-07208254 (PRKACA): 2.7%
ATP = Km % Inhibition PF-07208254 [2]: 2.3%
ATP = 1 mM % Inhibition PF-07208254 (MAPK14): 4.0%
ATP = Km % Inhibition PF-07208254 (MAPK14): 3.0%
ATP = Km % Inhibition PF-07208254 (Rsk1): 3.3%
ATP = 1 mM % Inhibition PF-07208254 (STK3): -2.3%
ATP = Km % Inhibition PF-07208254 (STK3): 5.5%
ATP = 10 uM % Inhibition PF-07208254 (SPHK2): -11.8%
ATP = 1 mM % Inhibition PF-07208254 (LCK): 9.9%
ATP = Km % Inhibition PF-07208254 (LCK): 20.6%
ATP = 1 mM % Inhibition PF-07208254 (GSK3B): 0.7%
ATP = Km % Inhibition PF-07208254 (GSK3B): 9.7%
ATP = 1 mM % Inhibition PF-07208254 (CAMK2A): -0.3%
ATP = Km % Inhibition PF-07208254 (CAMK2A): 6.8%
ATP = 1 mM % Inhibition PF-07208254 (MET): -10.2%
ATP = Km % Inhibition PF-07208254 (MET): -3.1%
ATP = Km % Inhibition PF-07208254 (NEK6): 7.1%
ATP = Km % Inhibition PF-07208254 (MSK1): 2.7%

CCC1(COc2ccc(-c3csc(-c4ccccc4C(=O)O)n3)cn2)CC1 [PF-07247685, 2-(4-{6-[(1-ethylcyclopropyl)methoxy]pyridin-3-yl}-1,3-thiazol-2-yl)benzoic acid]
ATP = 1 mM % Inhibition PF-07247685 (MAPK1): 2.4%
ATP = Km % Inhibition PF-07247685 (MAPK1): 7.0%
ATP = Km % Inhibition PF-07247685 (MAPKAPK5): 2.3%
ATP = 1 mM % Inhibition PF-07247685 (SRC): -1.0%
ATP = Km % Inhibition PF-07247685 (SRC): 17.3%
ATP = Km % Inhibition PF-07247685 (AURKB): 17.3%
ATP = 1 mM % Inhibition PF-07247685 (EPHA2): 5.6%
ATP = Km % Inhibition PF-07247685 (EPHA2): 0.6%
ATP = 1 mM % Inhibition PF-07247685 [1]: 1.2%
ATP = Km % Inhibition PF-07247685 [1]: -2.6%
ATP = Km % Inhibition PF-07247685 (MAPK13): -0.7%
ATP = 1 mM % Inhibition PF-07247685 (PRKACA): 0.3%
ATP = Km % Inhibition PF-07247685 (PRKACA): 2.3%
ATP = Km % Inhibition PF-07247685 [2]: -1.5%
ATP = 1 mM % Inhibition PF-07247685 (MAPK14): 7.1%
ATP = Km % Inhibition PF-07247685 (MAPK14): 3.5%
ATP = Km % Inhibition PF-07247685 (Rsk1): 2.4%
ATP = 1 mM % Inhibition PF-07247685 (STK3): -7.6%
ATP = Km % Inhibition PF-07247685 (STK3): -1.8%
ATP = 10 uM % Inhibition PF-07247685 (SPHK2): 3.9%
ATP = 1 mM % Inhibition PF-07247685 (LCK): 3.0%
ATP = Km % Inhibition PF-07247685 (LCK): 5.9%
ATP = 1 mM % Inhibition PF-07247685 (GSK3B): 3.7%
ATP = Km % Inhibition PF-07247685 (GSK3B): 11.0%
ATP = 1 mM % Inhibition PF-07247685 (CAMK2A): 3.5%
ATP = Km % Inhibition PF-07247685 (CAMK2A): 2.8%
ATP = 1 mM % Inhibition PF-07247685 (MET): -2.2%
ATP = Km % Inhibition PF-07247685 (MET): -0.3%
ATP = Km % Inhibition PF-07247685 (NEK6): 1.2%
ATP = Km % Inhibition PF-07247685 (MSK1): -1.4%
